Laboratory results as given in patent publication US11970713B2, “Method for long-term ex vivo maintenance or expansion of human erythroblast, human megakaryocyte-erythroid progenitor, or human common myeloid progenitor cell and application thereof” (OCGENE THERAPEUTICS CORPORATION, priority 2020, dated 2024).
Entries after “also recorded” stand apart in the source; their conditions may differ.

Tested on: human umbilical cord blood mononuclear cells
Test: Cell expansion in E6 medium with different tankyrase inhibitors, removal of SB590885 or CHIR99021, or different XAV939 concentrations (Example 6)
Format: cell-based
Conditions: XAV939 between 0.2 μM and 2 μM in E6 + 3i
Protocol: 2×10^6 of human umbilical cord blood mononuclear cells were cultured in E6 medium supplemented with 3i composition (the same as that in EXAMPLE 1) as a control group; and 2×10^6 of human umbilical cord blood mononuclear cells were cultured in E6 medium supplemented with 3i+X composition (the same as that in EXAMPLE 1) as experimental groups, wherein X presented the tankyrase inhibitor, and different tankyrase inhibitors were selected from JW55, RK-287107, WIKI4, XAV939 or TC-E5001 in different experimental groups.
Additionally, the inventors investigated effect of removal of SB590885, removal of CHIR99021, or experience of different concentrations of XAV939 on cell expansion. The cell counting results were shown in Tables 2, 3, and 4, respectively.

SMILES: Oc1nc(-c2ccc(C(F)(F)F)cc2)nc2c1CSCC2 [XAV939]
- Effect of XAV939 concentration on expanded cell numbers: about the same; also recorded: can promote cell expansion
